The nature of the test: Singlet oxygen test with DPBF (decay of DPBF absorption at 418 nm on irradiation). It is filed as physicochemical. The following applies: solution of DPBF and porphyrin salt irradiated with halogen lamp, filter ~700 nm; b88: four 20 seconds intervals. An excerpt:
Alternatively, the ability to generate singlet oxygen may be tested as follows. DPBF (1,3-diphenylisobenzofuran)^8 is used to determine the ability of N,N′-dimethylated N-confused porphyrin salts to generate singlet oxygen. DPBF reacts quickly with singlet oxygen and its absorption decay around 418 nm can be easily monitored. […] A solution containing DPBF and N,N′-dimethylated N-confused porphyrin salts (e.g. compound 9 in FIG. 3) was irradiated with a halogen lamp using a filter (˜700 nm), and monitored by UV-vis spectroscopy at 418 nm.
Pyrrole (Acros) was distilled from CaH2 before use. The silica gel was 230-400 mesh Silicycle). Activity III basic alumina was obtained by adding 6% water to activity I Brockman basic alumina, 60-325 mesh (Fisher). All other materials and solvents were used as received. The NMR spectra were recorded on a Bruker WH-400 or a Bruker AV-400 in the solvents indicated and were referenced to residual solvent peaks. Elemental analyses were performed on a Carlo Erba Elemental Analyzer1108. The UV-vis spectra were measured on a Cary 50. Mass spectra were determined on a KRATOS Concept IIHQ hybrid mass spectrometer. Irradiations were carried with a 250 W Osram HLX 64655 […] in an Oriel lamp housing (model 66184). The light output passed through a glass filter: P70-700-S-Corion. […]

Turning to “N,N′-Dimethylated 2-aza-5,10,15,20-tetra(p-tolyl)-21-carba-porphyrin.HI [compound 9]”, the “decay of UV-vis signal at 418 nm (singlet oxygen generation)” value is “Substantial decay”.

For the origin of these results see patent US20040019095A1, “N, N'-dimethylated N-confused porphyrins” (priority 2002, published 2004).
